Key:
HeLa = assay: Inhibition of cells growth by colorimetric assay (SRB); settings: Homo sapiens, HeLa, 48 h; for GI50: read-out: HELA GI50; for CC50: read-out: HELA LC50; for IC (TGI): read-out: HELA TGI
Outline: (§1)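 Colorimetric SRB read (490 nm) on triplicate wells after 48 h at 37 °C, 5% CO2. Dose range 10 to 10^−8 μg/ml; 5×10^3 cells/well pre-attached 18 h.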

LoVo-Dox = assay: as above; settings: Homo sapiens, 48 h; for GI50: read-out: LOVO-DOX GI50; for CC50: read-out: LOVO-DOX LC50; for IC (TGI): read-out: LOVO-DOX TGI
Outline: as §1

DU-145 = assay: as above; settings: Homo sapiens, DU-145, 48 h; for GI50: read-out: DU145 GI50; for CC50: read-out: DU145 LC50; for IC (TGI): read-out: DU145 TGI
Outline: as §1

K-562 = assay: as above; settings: Homo sapiens, K562, 48 h; for GI50: read-out: K562 GI50; for CC50: read-out: K562 LC50; for IC (TGI): read-out: K562 TGI
Outline: as §1

SK-MEL-28 = assay: as above; settings: Homo sapiens, SK-MEL-28, 48 h; for GI50: read-out: MEL-28 GI50; for CC50: read-out: MEL-28 LC50; for IC (TGI): read-out: MEL-28 TGI
Outline: as §1

PANC-1 = assay: as above; settings: Homo sapiens, PANC-1, 48 h; for GI50: read-out: PANC-1 GI50; for CC50: read-out: PANC-1 LC50; for IC (TGI): read-out: PANC-1 TGI
Outline: as §1

HeLa-APL = assay: as above; settings: Homo sapiens, 48 h; for GI50: read-out: HELA-APL GI50; for CC50: read-out: HELA-APL LC50; for IC (TGI): read-out: HELA-APL TGI
Outline: as §1

IGROV-ET = assay: as above; settings: Homo sapiens, 48 h; for GI50: read-out: IGROV-ET GI50; for CC50: read-out: IGROV-ET LC50; for IC (TGI): read-out: IGROV-ET TGI
Outline: as §1

SK-BR-3 = assay: as above; settings: Homo sapiens, SK-BR-3, 48 h; for GI50: read-out: SK-BR3 GI50; for CC50: read-out: SK-BR3 LC50; for IC (TGI): read-out: SK-BR3 TGI
Outline: as §1

LNCaP = assay: as above; settings: Homo sapiens, LNCaP, 48 h; for GI50: read-out: LNCAP GI50; for CC50: read-out: LNCAP LC50; for IC (TGI): read-out: LNCAP TGI
Outline: as §1

IGROV-1 = assay: as above; settings: Homo sapiens, IGROV-1, 48 h; for GI50: read-out: IGROV GI50; for CC50: read-out: IGROV LC50; for IC (TGI): read-out: IGROV TGI
Outline: as §1

A-549 = assay: cells; settings: Homo sapiens, A549, 48 h; for GI50: read-out: A549 GI50; for CC50: read-out: A549 LC50; for IC (TGI): read-out: A549 TGI
Outline: as §1

LoVo = assay: cells; settings: Homo sapiens, LoVo, 48 h; for GI50: read-out: LOVO GI50; for CC50: read-out: LOVO LC50; for IC (TGI): read-out: LOVO TGI
Outline: as §1

HT-29 = assay: cells; settings: Homo sapiens, HT-29, 48 h; for GI50: read-out: HT29 GI50; for CC50: read-out: HT29 LC50; for IC (TGI): read-out: HT29 TGI
Outline: as §1

With `COc1cc2c(cc1O)CCN[C@]21C[S+]([O-])[C@@H]2c3c(OC(C)=O)c(C)c4c(c3[C@H](COC1=O)N1C2C2c3c(cc(C)c(OC)c3O)C[C@@H]([C@@H]1O)N2C)OCO4` (stereo partly drawn) [Et-759B] the GI50 (HeLa) was 21.3 nM, the CC50 (HeLa) was 527 nM and the IC (TGI) (HeLa) was 64.2 nM. It also gave a GI50 (LoVo-Dox) of 192 nM, a CC50 (LoVo-Dox) of 12900 nM and an IC (TGI) (LoVo-Dox) of 625 nM. It also gave a GI50 (DU-145) of 391 nM, a CC50 (DU-145) of 11900 nM and an IC (TGI) (DU-145) of 3200 nM. The GI50 (K-562) was 6 nM, the CC50 (K-562) was 12900 nM and the IC (TGI) (K-562) was 37.9 nM. It also gave a GI50 (SK-MEL-28) of 19.7 nM, a CC50 (SK-MEL-28) of 123 nM and an IC (TGI) (SK-MEL-28) of 49.1 nM. For the same compound, the GI50 (PANC-1) was 35.5 nM, the CC50 (PANC-1) was 11000 nM and the IC (TGI) (PANC-1) was 122 nM. For the same compound, the GI50 (HeLa-APL) was 35.9 nM, the CC50 (HeLa-APL) was 1040 nM and the IC (TGI) (HeLa-APL) was 102 nM. It also gave a GI50 (IGROV-ET) of 58.2 nM, a CC50 (IGROV-ET) of 1710 nM and an IC (TGI) (IGROV-ET) of 273 nM. The GI50 (SK-BR-3) was 5.37 nM, the CC50 (SK-BR-3) was 88.1 nM and the IC (TGI) (SK-BR-3) was 11.6 nM. The GI50 (LNCaP) was 4.64 nM, the CC50 (LNCaP) was 52.2 nM and the IC (TGI) (LNCaP) was 16.7 nM. The GI50 (IGROV-1) was 22.9 nM, the CC50 (IGROV-1) was 10000 nM and the IC (TGI) (IGROV-1) was 65.2 nM. The GI50 (A-549) was 26.2 nM, the CC50 (A-549) was 702 nM and the IC (TGI) (A-549) was 61.3 nM. It also gave a GI50 (LoVo) of 327 nM, a CC50 (LoVo) of 118 nM and an IC (TGI) (LoVo) of 62.1 nM. It also gave a GI50 (HT-29) of 41.9 nM, a CC50 (HT-29) of 12900 nM and an IC (TGI) (HT-29) of 2290 nM.

Compound `COc1c(C)cc2c(c1O)[C@H]1N[C@@H](C2)[C@H](O)N2C1[C@@H]1SC[C@]3(NCCc4c3[nH]c3ccc(C)cc43)C(=O)OC[C@H]2c2c3c(c(C)c(OC(C)=O)c21)OCO3` (stereo partly drawn) [compound 66] has a GI50 (HeLa) of 2.41 nM, a CC50 (HeLa) of 9.07 nM and an IC (TGI) (HeLa) of 4.68 nM. The GI50 (LoVo-Dox) was 370 nM, the CC50 (LoVo-Dox) was 13200 nM and the IC (TGI) (LoVo-Dox) was 1890 nM. For the same compound, the GI50 (DU-145) was 3.39 nM, the CC50 (DU-145) was 3860 nM and the IC (TGI) (DU-145) was 1.6 nM. For the same compound, the GI50 (K-562) was 4.33 nM, the CC50 (K-562) was 484 nM and the IC (TGI) (K-562) was 12.5 nM. For the same compound, the GI50 (SK-MEL-28) was 5.34 nM, the CC50 (SK-MEL-28) was 74.5 nM and the IC (TGI) (SK-MEL-28) was 18.9 nM. For the same compound, the GI50 (PANC-1) was 4.57 nM, the CC50 (PANC-1) was 6400 nM and the IC (TGI) (PANC-1) was 23.4 nM. For the same compound, the GI50 (HeLa-APL) was 3.05 nM, the CC50 (HeLa-APL) was 12.7 nM and the IC (TGI) (HeLa-APL) was 6.24 nM. The GI50 (IGROV-ET) was 38.3 nM, the CC50 (IGROV-ET) was 5590 nM and the IC (TGI) (IGROV-ET) was 179 nM. For the same compound, the GI50 (SK-BR-3) was 6.5 nM, the CC50 (SK-BR-3) was 13200 nM and the IC (TGI) (SK-BR-3) was 331 nM. The GI50 (LNCaP) was 1.99 nM, the CC50 (LNCaP) was 7.39 nM and the IC (TGI) (LNCaP) was 3.83 nM. For the same compound, the GI50 (IGROV-1) was 2.99 nM, the CC50 (IGROV-1) was 160 nM and the IC (TGI) (IGROV-1) was 6.76 nM. The GI50 (A-549) was 7.62 nM, the CC50 (A-549) was 874 nM and the IC (TGI) (A-549) was 39.7 nM. For the same compound, the GI50 (LoVo) was 5.27 nM, the CC50 (LoVo) was 4350 nM and the IC (TGI) (LoVo) was 20.9 nM. For the same compound, the GI50 (HT-29) was 5.86 nM, the CC50 (HT-29) was 13200 nM and the IC (TGI) (HT-29) was 181 nM.

Reference: patent publication US7767659B2, “Synthesis of naturally occurring ecteinascidins and related compounds” (Pharma Mar, S.A., priority 2002, dated 2010)
